Experimental data from patent publication US11160767B2, “4,4′-trans-dihydroxystilbene for use in treating cancer” (The George Washington University, a Congressionally …, priority 2017, dated 2021).

Assays:
[1] = target: T1, truncated-RRM2 protein (deletion of GLU147 to ILE166) (Homo sapiens, UniProt P31350, DEL147-166); assay: Thermal shift assay, truncated RRM2; format: cell-based; conditions: HCT116 cells
T1 construct: expressed in transfected cells; host or cells: HCT116
Text: To verify the DHS binding site on RRM2, a RRM2 construct with a deletion of GLU147 to ILE166 was generated. […] Since Hu is also known to interact with RRM2 protein, the effect of DHS on Hu binding to RRM2 was investigated using a cellular thermal shift assay with KB-Hu (an Hu resistant oral cancer cell line).

HCT116 cells [2] = assay: Comet assay; format: cell-based, human; conditions: 2.5 μM for 24 hours
Procedure: Comet assay. HCT116 cells were treated with DHS for 0.5 or 24 hours. Afterward, the cells were irradiated with X-rays at a dose of 20 Gy. An aliquot of 80 μL cell suspension were mixed with 400 μL 1.2% low melting point agarose and plated on Fisherfinest microscope slide (Thermo Scientific, Pittsburgh, Pa., US), which had already been layered with 120 μL 1% agarose gel. Cells were then lysed and DNA was electrophoretically separated. The gels were neutralized before staining with 60 μL of 5 μM SYBR green. The shape of the stained DNA mass in at least 50 cells in each sample was analyzed with OpenComet software (MA, US).
(§1) To investigate whether inhibition of DNA replication by DHS can trigger DNA damage, the DNA damage markers phosphor-Chk1 (pChk1, Serine 345) and phosphor-Chk2 (pChk2, Threonine 68) were analyzed in DHS-treated HCT116 cells. […] A comet assay was next used to test if DNA double strand breaks are induced by DHS.

plasmid DNA = assay: Incubation with plasmid DNA, UV absorption; format: binding
Text: In addition, resveratrol has been previously reported to interact with DNA grooves (Usha et al., 2006). […] A similar result with And-1, RRM1, and RRM2 was also observed in DHS resistant HCT116 cells (data not shown).

RRM2 = target: T2, RRM2 (Homo sapiens, UniProt P31350); assay: Ubiquitination assay; format: cell-based; conditions: HCT116 cells, with MG-132 pre-treatment
T2 construct: endogenous in cells; host or cells: HCT116
T2 sequence (P31350 1-389): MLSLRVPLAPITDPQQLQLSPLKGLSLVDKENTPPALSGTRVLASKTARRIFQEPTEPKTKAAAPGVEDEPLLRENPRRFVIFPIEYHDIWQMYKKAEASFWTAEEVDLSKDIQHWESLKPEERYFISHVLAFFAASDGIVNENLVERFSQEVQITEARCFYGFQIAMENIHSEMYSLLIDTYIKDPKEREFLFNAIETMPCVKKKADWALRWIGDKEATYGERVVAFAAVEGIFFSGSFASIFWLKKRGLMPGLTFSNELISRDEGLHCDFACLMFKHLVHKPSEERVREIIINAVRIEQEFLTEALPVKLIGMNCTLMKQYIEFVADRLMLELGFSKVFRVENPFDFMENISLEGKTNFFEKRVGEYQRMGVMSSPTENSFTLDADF
Procedure: It was next investigated whether treatment with DHS leads to reduced levels of RRM2 through the proteasome degradation pathway. […] To confirm whether degradation of RRM1 is dependent on RRM2, RRM1 or RRM2 expression was knocked down by treatment with siRNAs and resultant protein amounts were detected. […] Next, a ubiquitination assay with MG-132 pre-treatment was performed to determine whether a ubiquitination reaction is involved in DHS-mediated RRM2 degradation. […] According to the literature, Cyclin F is the E3 ligase that ubiquitinates RRM2 (D'Angiolella et al., 2012). Thus, the amount of RRM2 in cells was determined after knockdown of Cyclin F by siRNA. […] Cell viability after DHS exposure was also investigated in cells in which either RRM2 or Cyclin F expression was knocked down by siRNA.

And-1 = target: T3, And-1 (Homo sapiens, UniProt O75717); assay: Cellular thermal shift assay, And-1; format: cell-based; conditions: HCT116 cells
T3 construct: endogenous in cells; host or cells: HCT116
T3 sequence (O75717 whole entry): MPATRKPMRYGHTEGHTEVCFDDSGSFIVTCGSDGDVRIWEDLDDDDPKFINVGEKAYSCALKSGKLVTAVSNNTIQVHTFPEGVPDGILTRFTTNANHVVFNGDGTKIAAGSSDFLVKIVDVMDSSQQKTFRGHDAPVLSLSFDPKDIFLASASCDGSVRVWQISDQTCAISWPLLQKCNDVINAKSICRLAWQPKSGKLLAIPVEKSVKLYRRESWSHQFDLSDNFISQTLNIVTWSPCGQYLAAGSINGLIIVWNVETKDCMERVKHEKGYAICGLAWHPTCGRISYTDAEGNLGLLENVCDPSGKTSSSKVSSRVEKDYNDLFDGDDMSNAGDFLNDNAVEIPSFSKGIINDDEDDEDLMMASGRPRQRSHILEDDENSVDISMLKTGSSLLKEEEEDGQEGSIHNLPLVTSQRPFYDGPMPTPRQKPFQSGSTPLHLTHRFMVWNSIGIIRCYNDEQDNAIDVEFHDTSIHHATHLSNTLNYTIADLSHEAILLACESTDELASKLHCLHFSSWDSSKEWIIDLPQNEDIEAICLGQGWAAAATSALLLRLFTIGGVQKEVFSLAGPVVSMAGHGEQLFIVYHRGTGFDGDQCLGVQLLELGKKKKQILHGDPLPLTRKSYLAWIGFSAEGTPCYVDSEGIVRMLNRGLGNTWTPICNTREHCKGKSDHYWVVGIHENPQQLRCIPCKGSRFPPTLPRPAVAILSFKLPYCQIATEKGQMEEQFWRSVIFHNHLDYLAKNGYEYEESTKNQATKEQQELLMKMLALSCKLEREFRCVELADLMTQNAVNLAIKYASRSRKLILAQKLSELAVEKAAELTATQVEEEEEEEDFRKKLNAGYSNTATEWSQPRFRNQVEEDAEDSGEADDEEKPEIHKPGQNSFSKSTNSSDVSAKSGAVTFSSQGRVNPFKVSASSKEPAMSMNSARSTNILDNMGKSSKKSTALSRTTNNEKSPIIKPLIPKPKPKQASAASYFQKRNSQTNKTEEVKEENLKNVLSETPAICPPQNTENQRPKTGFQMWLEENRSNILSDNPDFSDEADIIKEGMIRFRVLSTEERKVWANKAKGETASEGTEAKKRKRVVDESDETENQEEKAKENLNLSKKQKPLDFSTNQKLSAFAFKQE
Procedure: In order to study the mechanisms by which DHS induces down-regulation of And-1, RRM1, and RRM2 proteins, DHS-resistant HCT116 cells were generated (FIG. 9C). […] Next, it was investigated whether DHS directly binds to And-1, RRM1, or RRM2. A cellular thermal shift assay (Jafari et al., 2014) was conducted for And-1 (FIG. 9E). […] A coimmunoprecipitation (CoIP) assay was conducted to determine whether And-1, RRM1, and RRM2 interact in the same complex. The result implied that […] (FIG. 9F).

HCT116 cells [3] = assay: dNTP amount in treated cells; format: cell-based, human
Text: The effect of DHS on dNTP synthesis was investigated by measuring the amount of dNTPs in DHS-treated HCT116 cells.

[4] = mouse, in vivo
Procedure: (§3) Xenograft mouse models. […] In xenograft studies, HCT116 (3×10^6 cells) and IGROV3/CP2 (5×10^6 cells) suspended in 100 μl of phosphate buffered saline (PBS, pH 7.4) were injected subcutaneously into the lower flank of the mice. Testing compounds were dissolved in DMSO/Tween 80/saline (10:10:80; v/v/v) buffer and were used to treat animals through intraperitoneal (i.p.) injection. […] The body weight of animals was measured throughout the study. Tumor diameters were measured with digital calipers, and the tumor volume in mm^3 was calculated by the formula: Volume=(width)^2×length/2.
(§4) HCT116 cells (5×10^6) were injected subcutaneously in nude mice and grown to approximately 100 mm^3 in volume. […] To study the preclinical toxicity of DHS, samples of hearts, livers, spleens, lung, and kidneys were collected on Day 38 and sections were stained for histological examination.

HCT116 xenograft tumor = HCT116 xenograft tumor model; format: in vivo, nude mice; conditions: Day 38; DHS 50 mg/kg i.p. 14 consecutive days; cisplatin 8 mg/kg i.p.
Procedure: as §3, §4

KB, KB-Gem and KB-Hu = assay: Cell survival of KB and resistant sublines; format: cell-based
Procedure: An oral cancer cell line, KB, and its gemcitabine-resistant and hydroxyurea resistant sublines, KB-Gem and KB-Hu, respectively, were treated with gemcitabine (FIG. 15A), hydroxyurea (FIG. 15B), or DHS (FIG. 15C).
Next, the effect of combined treatment with DHS and Gemcitabine or Hydroxyurea was investigated.

HCT116 cells [5] = assay: Cell-cycle assay; format: cell-based, human; conditions: 10 μM
Procedure: A cell-cycle assay was conducted to study whether DHS would affect cell-cycle progression.

RRM1 and RRM2 proteins = target: T4, RRM1 and RRM2 proteins (Homo sapiens, UniProt P31350); assay: RRM1 and RRM2 protein levels by Western blot; format: cell-based; conditions: HCT116 cells
T4 construct: endogenous in cells; host or cells: HCT116
Procedure: (§2) Western blot analysis. Compound-treated cells were harvested and lysed. Protein extracts were subjected to electrophoresis in a SDS-polyacrylamide gel. The resolved proteins were transferred onto polyvinylidene difluoride membranes (Amersham Biosciences, Piscataway, N.J., US). After the blocking step, membranes were incubated with primary IgG antibodies, washed, and then incubated with horseradish peroxidase-conjugated anti-rabbit IgG or anti-mouse IgG secondary antibodies. Western blot signals were visualized by chemiluminescence using SuperSignal West Pico chemiluminescence reagent (Pierce, Rockford, Ill., US).
The effect of DHS treatment on And-1, RRM1, and RRM2 expression was investigated.

[6] = system: phosphor-Chk1 (pChk1, Serine 345); assay: DNA damage markers by Western blot; format: cell-based, human; conditions: HCT116 cells, 10 μM for 20 minutes
Procedure: as §2, §1

T1 sequence (P31350 with tags, fused parts or gaps DEL147-166): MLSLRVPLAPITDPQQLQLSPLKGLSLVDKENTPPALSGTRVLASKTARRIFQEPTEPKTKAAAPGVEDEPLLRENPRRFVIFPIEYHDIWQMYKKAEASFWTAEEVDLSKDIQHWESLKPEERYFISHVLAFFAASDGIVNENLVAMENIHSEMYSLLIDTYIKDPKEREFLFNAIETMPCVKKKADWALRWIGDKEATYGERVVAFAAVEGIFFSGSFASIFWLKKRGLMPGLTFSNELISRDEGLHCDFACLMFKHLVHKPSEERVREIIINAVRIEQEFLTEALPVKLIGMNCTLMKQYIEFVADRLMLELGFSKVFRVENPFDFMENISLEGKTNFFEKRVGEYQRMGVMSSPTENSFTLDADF

In the case of `Oc1ccc(/C=C/c2ccc(O)cc2)cc1` [DHS, 4,4′-trans-dihydroxystilbene], the “Thermal stability of truncated RRM2” value [1] was “not able to maintain thermal stability of the truncated-RRM2 protein”, the “DNA double strand breaks (lengths of tail moments)” value (HCT116 cells [2]) was “caused significant DNA double strand breaks” and the “UV absorption on incubation with plasmid DNA (DNA binding)” value (plasmid DNA) was “increased UV absorption”. For the same molecule, the “Ubiquitinated RRM2” value (RRM2) was “ubiquitinated RRM2 was increased by DHS treatment”, the “Binding to And-1 (cellular thermal shift)” value (And-1) was “does not bind to And-1” and the dNTP synthesis (HCT116 cells [3]) was “inhibited synthesis of dATP, dCTP, dGTP, and dTTP”. The “Histology, hearts, livers, lung, and kidneys” value [4] was “no obvious damage”, the “Histology, spleens” value [4] was “Minor damage” and the “Reduction in tumor volume as compared with the vehicle control group” value (HCT116 xenograft tumor) was about 50%. The “Cell survival of resistant sublines” value (KB, KB-Gem and KB-Hu; KB, KB-Gem, KB-Hu, DHS alone) was “overcame gemcitabine and hydroxyurea resistance”, the “Resensitisation to gemcitabine and hydroxyurea” value (KB, KB-Gem and KB-Hu; KB-Gem and KB-Hu, 10 μM DHS) was “resensitized cultured KB-gem and KB-Hu cell lines to gemcitabine and hydroxyurea” and the “Effect on cell-cycle progression” value (HCT116 cells [5]) was “robust S-phase arrest”. For the same molecule, the “RRM1 and RRM2 protein levels” value (RRM1 and RRM2 proteins) was “caused down-regulation of RRM1 and RRM2 proteins” and the “DNA damage (phosphorylated CHK1, pSerine 345)” value [6] was “more potent than resveratrol and the other analogs”.
